Source: patent US5349127A, “Expression of herbicide metabolizing cytochromes P450” (priority 1992, dated 1994)

Key:
[1] = test system: S. lividans pCAO200SU2-FeS-A#11; test: Sulfonylurea metabolism by washed cell suspension (Examples 11-12); assay type: in vitro ADME, Streptomyces lividans; conditions: substrate 10001
Procedure: (§1) S. lividans transformed with pCAO200SU2-FeS-A#11 and S. lividans transformed with pCAO200 were cultured for 36 hours in 400 ml of YEME broth at 30° C. S. griseolus PH2001 (mutant without SU1) was cultured in 400 ml of sporulation broth at 30° C. Nine hours before harvesting the cells, the S. griseolus PH2001 culture was divided into two 200 ml cultures. Both received 100 ml of fresh sporulation broth and one received 36 mg of 10001 to induce cytochrome P450SU2. The cells were prepared as described above in Example 6 and the concentrations of the sulfonylurea compound 10001 and its metabolites 10002 and 10003 were determined.

S. lividans PH3816 = test: Metabolism of 10001 by strains transformed with pCS325 (Example 15); assay type: in vitro ADME, Streptomyces lividans; conditions: substrate 10001
Procedure: (§2) S. griseolus PH2003, S. griseus PH4001, S. ambofaciens PH4002, and S. lividans JI1326 were transformed with the plasmid pPAT108. The transformed S. griseolus strain, PH3826, was cultured for 24 hours in 150 mls of sporulation broth with 5 ug/ml thiostrepton. The transformed S. griseus strain, PH3832, and the transformed S. ambofaciens strain, PH3834, were cultured for 24 hours in 150 mls of trypticase soy broth with 5 ug/ml thiostrepton. The transformed S. lividans strain, PH3822, was similarly cultured in 150 mls of YEME broth with 5 ug/ml thiostrepton. Three hours before harvesting the cells, 50 mls of fresh medium of the same type with 5 ug/ml thiostrepton was added to each culture. The cells from each of the cultures were harvested by centrifugation, washed twice with 50 mMMOPS, pH7.2 and resuspended in five cell volumes of MOPS containing 0.2% glucose and 120 ug/ml of the sulfonylurea 10001. The cell suspensions were incubated at 30° C. with shaking and aliquots were removed at 0.5, 1, 2 and 4 hours. The supernatant of each aliquot was analyzed by HPLC and the concentration of the sulfonylurea compound 10001 and its metabolites 10002 and 10003 were determined.
S. griseolus PH2003, S. griseus PH4001, S. ambofaciens PH4002, and S. lividans JI1326 were transformed with the plasmid pCS325. Cells of the transformed strains of S. griseolus PH3809, S. griseus PH3817, S. ambofaciens PH3818, and S. lividans PH3816, were grown and treated as described in Example 14, and the concentrations of the sulfonylurea compound 10001 and its metabolites 10002 and 10003 were determined.

[2] = test system: S. griseolus PH2001 uninduced; test: Sulfonylurea metabolism by washed cell suspension (Examples 11-12); assay type: in vitro ADME, Streptomyces griseolus
Procedure: (§3) A 100 ml culture of S. griseolus ATCC 11796 in sporulation broth and a 50 ml culture of S. lividans transformed with pCAO400 in YEME broth were prepared and incubated for 24 hours as described. At that time, the S. griseolus culture was split into two 50 ml aliquots into two separate flasks and 25 ml of fresh sporulation broth was added to each and 9 mg of […] was added to one of these cultures to induce cytochrome P450SU1 expression. Fresh YEME broth (25 ml) was added to the S. lividans culture. After an additional 6 hours growth at 30° C., the cells in each culture were harvested as described above, washed twice with MOPS (50 mM, pH 7.2) and recentrifuged. The cell pellets were resuspended in four cell volumes of MOPS (50 mM, pH 7.2) containing 0.2% glucose and about 100 μg/ml of 10004. These cell suspensions were incubated at 30° C. with shaking and aliqouts were taken at 2 and 5.5 hours. The supernatant of each aliquot was analyzed by HPLC and the concentrations of the sulfonylurea compound 10004 and its metabolite 10005 were determined.
(§4) S. lividans transformed respectively with pCAO200SU1-FeS-B#9, pCAO200SU#112and pCAO200 were cultured for 36 hours in 400 ml of YEME broth at 30° C. S. griseolus ATCC 11796 was similarly cultured in 400 ml of sporulation broth. Six hours before harvesting the cells, 150 ml of fresh YEME broth was added to the S. lividans cells, and the S. griseolus cells were split into two 200 ml cultures with 100 ml of fresh sporulation broth added to each. 10001 (36 mg) was added to one of the two S. griseolus cultures to induce cytochrome P450SU1. The cells were prepared as described above in Example 5 and the concentrations of the sulfonylurea compound 10006 and its metabolites 10007, 10008 or 10009 were determined.
as §1

[3] = test system: S. griseolus PH2001 induced with 10001; test: as above; assay type: in vitro ADME, Streptomyces griseolus
Procedure: as §3, §4, §1

S. lividans PH3822 = test: Metabolism of 10001 by strains transformed with pPAT108 (Example 14); assay type: in vitro ADME, Streptomyces lividans; conditions: substrate 10001 120 ug/ml
Procedure: as §2

[4] = test system: S. griseolus ATCC 11796 induced with 10001; test: Sulfonylurea metabolism by washed cell suspension (Examples 5-9); assay type: in vitro ADME, Streptomyces griseolus
S. lividans pCAO200 = test: Sulfonylurea metabolism by washed cell suspension (Examples 6-9); assay type: in vitro ADME, Streptomyces lividans
[5] = test system: S. lividans transformed with pCAO400; test: Metabolism of 10001 in growing culture, HPLC of supernatant (Example 4); assay type: in vitro ADME, Streptomyces lividans; conditions: 0.12 mg/ml 10001 in culture
Procedure: Herbicides and their metabolites are measured by HPLC as described by Romesser et al., BBRC 140: 650-659 (1986), herein incorporated by reference, except that 0.1% H3 PO4 is used in both solvents. Chromatographic identity and quantitation of the herbicides and their resulting metabolites is determined by comparing them chromatographically with authentic standard compounds. Identity of the resulting metabolites is also confirmed by UV spectroscopy.
Separate cultures (50 ml) inoculated with S. lividans C37, S. lividans transformed with pCAO400 or S. lividans transformed with pCAO401 in sporulation broth containing 0.12 mg/ml of 10001 were grown with shaking at 30° C. Aliquots (1.5 ml) of each culture were removed at 24, 32, 48 and 56 hours after inoculation and the supernatant of each aliquot was analyzed by HPLC for its concentration of 10001 and its metabolites 10002 or 10003.

CCOC(=O)c1ccccc1S(=O)(=O)NC(=O)Nc1nc(Cl)cc(OC)n1 [compound 10001, N-[(4-chloro-6-methoxy-pyrimidin-2-yl)aminocarbonyl]-2-ethoxycarbonylbenzenesulfonamide]
concentration in supernatant ([1]; 2 h): 279 µM | concentration in supernatant ([1]; 4 h): 273 µM | concentration in supernatant ([1]; 6 h): 251 µM | concentration in supernatant (S. lividans PH3816; 0.5 h): 331 µM | concentration in supernatant (S. lividans PH3816; 1.0 h): 339 µM | concentration in supernatant (S. lividans PH3816; 2.0 h): 299 µM | concentration in supernatant (S. lividans PH3816; 4.0 h): 248 µM | concentration in supernatant ([2]; substrate 10001, 2 h): 271 µM | concentration in supernatant ([2]; substrate 10001, 4 h): 264 µM | concentration in supernatant ([2]; substrate 10001, 6 h): 244 µM | concentration in supernatant ([3]; substrate 10001, 2 h): 286 µM | concentration in supernatant ([3]; substrate 10001, 4 h): 256 µM | concentration in supernatant ([3]; substrate 10001, 6 h): 234 µM | concentration in supernatant (S. lividans PH3822; 0.5 h): 294 µM | concentration in supernatant (S. lividans PH3822; 1.0 h): 284 µM | concentration in supernatant (S. lividans PH3822; 2.0 h): 262 µM | concentration in supernatant (S. lividans PH3822; 4.0 h): 232 µM | concentration in supernatant ([4]; substrate 10001, 2 h): 220 µM | concentration in supernatant ([4]; substrate 10001, 4 h): 36 µM | concentration in supernatant ([4]; substrate 10001, 6 h): 3 µM | concentration in supernatant (S. lividans pCAO200; substrate 10001, 2 h): 301 µM | concentration in supernatant (S. lividans pCAO200; substrate 10001, 4 h): 287 µM | concentration in supernatant (S. lividans pCAO200; substrate 10001, 6 h): 313 µM | concentration in supernatant ([5]; 0 h): 300 µM | concentration in supernatant ([5]; 24 h): 269 µM | concentration in supernatant ([5]; 32 h): 240 µM | concentration in supernatant ([5]; 48 h): 184 µM | concentration in supernatant ([5]; 56 h): 137 µM

CCOC(=O)c1ccccc1S(=O)(=O)NC(=O)Nc1nc(O)cc(Cl)n1 [compound 10002, N-[(4-chloro-6-hydroxy-pyrimidin-2-yl)aminocarbonyl]-2-ethoxycarbonylbenzenesulfonamide]
concentration in supernatant ([1]; 2 h): 7 µM | concentration in supernatant ([1]; 4 h): 12 µM | concentration in supernatant ([1]; 6 h): 15 µM | concentration in supernatant (S. lividans PH3816; 0.5 h): 19 µM | concentration in supernatant (S. lividans PH3816; 1.0 h): 36 µM | concentration in supernatant (S. lividans PH3816; 2.0 h): 68 µM | concentration in supernatant (S. lividans PH3816; 4.0 h): 103 µM | concentration in supernatant (S. lividans PH3822; 0.5 h): 2 µM | concentration in supernatant (S. lividans PH3822; 1.0 h): 5 µM | concentration in supernatant (S. lividans PH3822; 2.0 h): 10 µM | concentration in supernatant (S. lividans PH3822; 4.0 h): 25 µM | concentration in supernatant (S. lividans pCAO200; substrate 10001, 2 h): 2 µM | concentration in supernatant (S. lividans pCAO200; substrate 10001, 4 h): 1 µM | concentration in supernatant (S. lividans pCAO200; substrate 10001, 6 h): 2 µM | concentration in supernatant ([5]; 0 h): 0 µM | concentration in supernatant ([5]; 24 h): 17 µM | concentration in supernatant ([5]; 32 h): 25 µM | concentration in supernatant ([5]; 48 h): 39 µM | concentration in supernatant ([5]; 56 h): 47 µM

COc1cc(Cl)nc(NC(=O)NS(=O)(=O)c2ccccc2C(=O)O)n1 [compound 10003, N-[(4-chloro-6-methoxy-pyrimidin-2-yol)aminocarbonyl]-2-carboxybenzenesulfonamide]
concentration in supernatant ([1]; 2 h): 1 µM | concentration in supernatant ([1]; 4 h): 2 µM | concentration in supernatant ([1]; 6 h): 3 µM | concentration in supernatant (S. lividans PH3816; 0.5 h): 1 µM | concentration in supernatant (S. lividans PH3816; 1.0 h): 3 µM | concentration in supernatant (S. lividans PH3816; 2.0 h): 7 µM | concentration in supernatant (S. lividans PH3816; 4.0 h): 11 µM | concentration in supernatant ([2]; substrate 10001, 2 h): 1 µM | concentration in supernatant ([2]; substrate 10001, 4 h): 2 µM | concentration in supernatant ([2]; substrate 10001, 6 h): 3 µM | concentration in supernatant ([3]; substrate 10001, 2 h): 7 µM | concentration in supernatant ([3]; substrate 10001, 4 h): 10 µM | concentration in supernatant ([3]; substrate 10001, 6 h): 13 µM | concentration in supernatant (S. lividans PH3822; 0.5 h): 1 µM | concentration in supernatant (S. lividans PH3822; 1.0 h): 3 µM | concentration in supernatant (S. lividans PH3822; 2.0 h): 5 µM | concentration in supernatant (S. lividans PH3822; 4.0 h): 15 µM | concentration in supernatant ([4]; substrate 10001, 2 h): 76 µM | concentration in supernatant ([4]; substrate 10001, 4 h): 128 µM | concentration in supernatant ([4]; substrate 10001, 6 h): 142 µM | concentration in supernatant (S. lividans pCAO200; substrate 10001, 2 h): 1 µM | concentration in supernatant (S. lividans pCAO200; substrate 10001, 4 h): 1 µM | concentration in supernatant (S. lividans pCAO200; substrate 10001, 6 h): 2 µM | concentration in supernatant ([5]; 0 h): 0 µM | concentration in supernatant ([5]; 24 h): 16 µM | concentration in supernatant ([5]; 32 h): 22 µM | concentration in supernatant ([5]; 48 h): 28 µM | concentration in supernatant ([5]; 56 h): 29 µM

COC(=O)c1ccccc1S(=O)(=O)NC(=O)Nc1nc(C)cc(C)n1 [compound 10010, N-[(4,6-dimethylpyrimidin-2-yl)aminocarbonyl]-2-methoxycarbonylbenzenesulfonamide]
concentration in supernatant ([2]; substrate 10010, 2 h): 89 µM | concentration in supernatant ([2]; substrate 10010, 4 h): 88 µM | concentration in supernatant ([2]; substrate 10010, 6 h): 89 µM | concentration in supernatant ([3]; substrate 10010, 2 h): 64 µM | concentration in supernatant ([3]; substrate 10010, 4 h): 56 µM | concentration in supernatant ([3]; substrate 10010, 6 h): 50 µM | concentration in supernatant ([4]; substrate 10010, 2 h): 40 µM | concentration in supernatant ([4]; substrate 10010, 4 h): 8 µM | concentration in supernatant ([4]; substrate 10010, 6 h): 4 µM | concentration in supernatant (S. lividans pCAO200; substrate 10010, 2 h): 90 µM | concentration in supernatant (S. lividans pCAO200; substrate 10010, 4 h): 89 µM | concentration in supernatant (S. lividans pCAO200; substrate 10010, 6 h): 89 µM
